The IC50 is the midpoint of a concentration-inhibition curve. What is called melting point is the temperature, or range, at which the solid turns liquid. As a reminder, the inhibition is the percentage by which the read-out fell short of the control.

This passage reports IC50, melting point and inhibition results from patent US8466145B2, “Dipeptidyl peptidase IV inhibitors” (Orchid Chemicals & Pharmaceuticals Limited, priority 2009, dated 2013).

Series [1] addresses T1, human recombinant Dipeptidyl peptidase IV enzyme (hrDPP IV) (Homo sapiens, UniProt P27487).
T1 construct: purchased R&D systems
Put plainly: DPP IV assay, cleavage of H-Gly-Pro-AMC by human recombinant DPP-IV enzyme. The following applies: for inhibition at 0.3 µM: 300 nM compound concentration. It counts as biochemical. On the procedure: DPP IV activity was determined by the cleavage rate of 7-amino 4-methylcoumarin (AMC) from the substrate H-Gly-Pro-AMC. In brief, the assay was conducted by adding 3 ng of human recombinant Dipeptidyl peptidase IV enzyme (hrDPP IV, available commercially from R&D systems) in 70 μL of the assay buffer (25 mM HEPES, 140 mM NaCl and 1% BSA, pH 7.8) to a 96 well black flat bottom microtitre plate. Test compounds were added as 10 μL additions to all wells except blank and total activity wells. After incubation of test substance with enzyme for 60 minutes at room temperature, 10 μL of 100 μM substrate H-Gly-Pro-AMC was added. After mixing, the plate was left for 20 minutes at room temperature. Then the reaction was terminated by addition of 10 μL of 25% glacial acetic acid. Fluorescence was measured using Spectra Max Gemini XS (Molecular Devices, USA) at an excitation filter of 360 nm and emission filter of 460 nm.
Test compounds dissolved in DMSO were diluted with assay buffer at different concentrations and tested in duplicates. Percentage inhibition was calculated with respect to total activity. IC50 value was calculated using Prism Software.

T1 sequence (P27487 whole entry): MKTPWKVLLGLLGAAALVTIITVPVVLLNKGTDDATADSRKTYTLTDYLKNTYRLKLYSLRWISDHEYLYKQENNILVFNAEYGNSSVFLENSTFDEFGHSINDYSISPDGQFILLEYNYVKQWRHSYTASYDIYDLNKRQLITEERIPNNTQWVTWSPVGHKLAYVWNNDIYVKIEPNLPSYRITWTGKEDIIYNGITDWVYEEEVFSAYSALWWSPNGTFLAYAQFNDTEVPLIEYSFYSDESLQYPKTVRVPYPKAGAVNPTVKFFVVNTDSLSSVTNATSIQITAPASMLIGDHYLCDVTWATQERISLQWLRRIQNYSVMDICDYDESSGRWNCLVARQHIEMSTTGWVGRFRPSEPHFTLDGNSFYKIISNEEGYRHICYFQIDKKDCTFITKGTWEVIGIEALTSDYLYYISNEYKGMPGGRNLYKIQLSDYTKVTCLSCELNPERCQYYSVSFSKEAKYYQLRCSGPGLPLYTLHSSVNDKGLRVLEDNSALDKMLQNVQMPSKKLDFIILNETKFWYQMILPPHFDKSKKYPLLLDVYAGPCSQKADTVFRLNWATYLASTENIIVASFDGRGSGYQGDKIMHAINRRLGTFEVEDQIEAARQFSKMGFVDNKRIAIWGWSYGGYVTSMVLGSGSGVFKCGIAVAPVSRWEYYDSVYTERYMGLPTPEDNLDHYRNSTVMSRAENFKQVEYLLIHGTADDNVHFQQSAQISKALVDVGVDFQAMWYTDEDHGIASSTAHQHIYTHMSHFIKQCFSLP

`CC1(C)[C@@H](Cn2nccn2)CC[C@@]1(C)NCC(=O)N1C[C@@H](F)C[C@H]1C#N` [Example 10, (2S,4S)-1-(2-((1R,3S)-3-((2H-1,2,3-Triazol-2-yl)methyl)-1,2,2-trimethylcyclopentylamino)acetyl)-4-fluoropyrrolidine-2-carbonitrile] had a melting point of 84 to 87 °C. Moreover, the IC50 in series [1] came out at 0.215 µM.

With `CC1(C)[C@@H](CN2CC[C@@H](O)C2)CC[C@@]1(C)NCC(=O)N1C[C@@H](F)C[C@H]1C#N` [Example 38, (2S,4S)-4-fluoro-1-(2-((1R,3S)-3-(((R)-3-hydroxypyrrolidin-1-yl)methyl)-1,2,2-trimethylcyclopentylamino)acetyl)pyrrolidine-2-carbonitrile], the melting point lay in the range of 130 to 135 °C. The inhibition at 0.3 µM in series [1] came out at 42.6%.

The compound `CC1(C)[C@@H](Cn2cc(CO)nn2)CC[C@@]1(C)NCC(=O)N1C[C@@H](F)C[C@H]1C#N` [Example 15, (2S,4S)-4-Fluoro-1-(2-((1R,3S)-3-((4-(hydroxymethyl)-1H-1,2,3-triazol-1-yl)methyl)-1,2,2-trimethyleyclopentylamino)acetyl)pyrrolidine-2-carbonitrile] registered a melting point of 240 to 279 °C. The inhibition at 0.3 µM in series [1] came to 60.5%.

`Cc1noc([C@H]2CC[C@@](C)(NCC(=O)N3C[C@@H](F)C[C@H]3C#N)C2(C)C)n1` [Example 50, (2S,4S)-4-Fluoro-1-(2-((1R,3S)-1,2,2-trimethyl-3-(3-methyl-1,2,4-oxadiazol-5-yl)cyclopentylamino)acetyl)pyrrolidine-2-carbonitrile] yielded a melting point of 147 to 151 °C. Further, the inhibition at 0.3 µM in series [1] turned out to be 15%.

The compound `CC1(C)[C@@H](CNC(=O)C2CCC(F)(F)CC2)CC[C@@]1(C)NCC(=O)N1C[C@@H](F)C[C@H]1C#N` [Example 22, N-(((1S,3R)-3-(2-((2S,4S)-2-Cyano-4-fluoropyrrolidin-1-yl)-2-oxoethylamino)-2,2,3-trimethylcyclopentyl)methyl)-4,4-difluorocyclohexane carboxamide] came in with a melting point of 193 to 195 °C. Moreover, the inhibition at 0.3 µM in series [1] came to 72.7%.

Compound `CC1(C)[C@H](CNS(=O)(=O)c2ccc(F)cc2)CC[C@]1(C)NCC(=O)N1C[C@@H](F)C[C@H]1C#N` [Example 20] yielded a melting point of 75 to 78 °C. In series [1], the IC50 came to 0.105 µM.

In turn, `CC1(C)[C@@H](CNc2ccc(C(F)(F)F)cn2)CC[C@@]1(C)NCC(=O)N1C[C@@H](F)C[C@H]1C#N` [Example 27, (2S,4S)-4-Fluoro-1-(2-((1R,3S)-1,2,2-trimethyl-3-((5-(trifluoromethyl)pyridin-2-ylamino)methyl)cyclopentylamino)acetyl)pyrrolidine-2-carbonitrile] showed a melting point of 52 to 58 °C. For the same compound, the inhibition at 0.3 µM in series [1] came out at 47.4%.

The compound `CC1(C)[C@@H](CN2CCCC2)CC[C@@]1(C)NCC(=O)N1C[C@@H](F)C[C@H]1C#N` [Example 36, (2S,4S)-4-Fluoro-1-(2-((1R,3S)-1,2,2-trimethyl-3-(pyrrolidin-1-ylmethyl)cyclopentylamino)acetyl)pyrrolidine-2-carbonitrile] came in with a melting point of 108 to 112 °C. Further, the inhibition at 0.3 µM in series [1] worked out at 31.9%.

`CC1(C)[C@@H](NCC(=O)N2C[C@@H](F)C[C@H]2C#N)CC[C@@]1(C)CCCn1cncn1` [Example 83, (2S,4S)-1-(2-((1S,3R)-3-(3-(1H-1,2,4-Triazol-1-yl)propyl)-2,2,3-trimethylcyclopentylamino)acetyl)-4-fluoropyrrolidine-2-carbonitrile] came in with a melting point of 152 to 154 °C. For the same compound, in series [1], the IC50 worked out at 0.00403 µM and the inhibition at 0.3 µM was 93.9%.

`CC1(C)[C@H](CNC(=O)C2CCC(F)(F)CC2)CC[C@]1(C)NCC(=O)N1C[C@@H](F)C[C@H]1C#N` [Example 23, N-(((1R,3S)-3-(2-((2S,4S)-2-Cyano-4-fluoropyrrolidin-1-yl)-2-oxoethylamino)-2,2,3-trimethylcyclopentyl)methyl)-4,4-difluorocyclohexane carboxamide] gave a melting point of 189 to 194 °C. Moreover, the inhibition at 0.3 µM in series [1] was found to be 86.2%.

Take `Cc1nc(C[C@H]2CC[C@@](C)(NCC(=O)N3C[C@@H](F)C[C@H]3C#N)C2(C)C)no1` [Example 54, (2S,4S)-4-Fluoro-1-(2-((1R,3R)-1,2,2-trimethyl-3-((5-methyl-1,2,4-oxadiazol-3-yl)methyl)cyclopentylamino)acetyl)pyrrolidine-2-carbonitrile]: the melting point was in the range of 121 to 123 °C. Moreover, in series [1], the inhibition at 0.3 µM was 64.9%.

As for `CC1(C)[C@@H](CN2CCCCC2)CC[C@@]1(C)NCC(=O)N1C[C@@H](F)C[C@H]1C#N` [Example 39, (2S,4S)-4-Fluoro-1-(2-((1R,3S)-1,2,2-trimethyl-3-(piperidin-1-ylmethyl)cyclopentylamino)acetyl)pyrrolidine-2-carbonitrile], the melting point was in the range of 100 to 103 °C. Also, the inhibition at 0.3 µM in series [1] is 45.9%.

For `Cc1noc([C@@H]2CC[C@](C)(NCC(=O)N3C[C@@H](F)C[C@H]3C#N)C2(C)C)n1` [Example 51, (2S,4S)-4-Fluoro-1-(2-((1S,3R)-1,2,2-trimethyl-3-(3-methyl-1,2,4-oxadiazol-5-yl)cyclopentylamino)acetyl)pyrrolidine-2-carbonitrile], the melting point was in the range of 160 to 163 °C. Also, in series [1], the IC50 came out at 0.0914 µM.

Compound `CC1(C)[C@@H](CS(=O)(=O)c2ccc(S(C)(=O)=O)cc2)CC[C@@]1(C)NCC(=O)N1C[C@@H](F)C[C@H]1C#N` [Example 42, (2S,4S)-4-Fluoro-1-(2-((1R,3S)-1,2,2-trimethyl-3-((4-(methylsulfonyl)phenylsulfonyl)methyl)cyclopentylamino)acetyl)pyrrolidine-2-carbonitrile] returned a melting point of 220 to 224 °C. Besides, the IC50 in series [1] stood at 0.0913 µM.

For the compound `CC1(C)[C@H](NCC(=O)N2C[C@@H](F)C[C@H]2C#N)CC[C@]1(C)c1nc(-c2ccncc2)no1` [Example 71, (2S,4S)-4-Fluoro-1-(2-((1R,3S)-2,2,3-trimethyl-3-(3-(pyridin-4-yl)-1,2,4-oxadiazol-5-yl)cyclopentylamino)acetyl)pyrrolidine-2-carbonitrile], the melting point is 167 to 171 °C. Besides, in series [1], the IC50 worked out at 0.0228 µM.

In the case of `CC1(C)[C@@H](CNc2ncccc2C#N)CC[C@@]1(C)NCC(=O)N1C[C@@H](F)C[C@H]1C#N` [Example 26, 2-(((1S,3R)-3-(2-((2S,4S)-2-Cyano-4-fluoropyrrolidin-1-yl)-2-oxoethylamino)-2,2,3-trimethylcyclopentyl)methylamino)nicotinonitrile], the melting point lay in the range of 96 to 99 °C. Further, the inhibition at 0.3 µM in series [1] stood at 63.2%.

As to `CC1(C)[C@H](CS(=O)(=O)c2ccc(S(C)(=O)=O)cc2)CC[C@]1(C)NCC(=O)N1CCC[C@H]1C#N` [Example 46, (S)-1-(2-((1S,3R)-1,2,2-Trimethyl-3-((4-(methylsulfonyl)phenylsulfonyl)methyl)cyclopentylamino)acetyl)pyrrolidine-2-carbonitrile], the melting point lay in the range of 158 to 160 °C. Further, the inhibition at 0.3 µM in series [1] was 40.9%.
